{"source": "patent US20110021429A1", "about": "“Renoprotection by growth hormone-releasing hormone and agonists” (priority 2007, published 2011)", "key": {"[1]": {"biological_target": "T1, GHRH-R (Rattus norvegicus, UniProt Q02644)", "T1 construct": "endogenous in cells; host or cells: freshly dispersed semi-purified thin limb cells of Henle's loop from the renal medulla of 2-month-old male Sprague Dawley rats", "T1 sequence (Q02644 53-423 isoform Q02644-2)": "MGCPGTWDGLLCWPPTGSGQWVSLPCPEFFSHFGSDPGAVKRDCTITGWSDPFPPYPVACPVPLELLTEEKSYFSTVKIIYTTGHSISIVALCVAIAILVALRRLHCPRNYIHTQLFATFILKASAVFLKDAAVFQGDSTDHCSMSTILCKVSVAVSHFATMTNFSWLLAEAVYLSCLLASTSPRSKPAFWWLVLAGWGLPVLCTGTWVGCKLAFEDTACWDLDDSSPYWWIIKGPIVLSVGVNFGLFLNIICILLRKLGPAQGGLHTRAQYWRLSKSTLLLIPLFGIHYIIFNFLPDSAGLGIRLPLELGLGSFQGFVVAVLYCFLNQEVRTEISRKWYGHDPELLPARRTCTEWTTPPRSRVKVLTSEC", "assay": "GHRH-induced intracellular cAMP production in freshly dispersed semi-purified thin limb cells (EIA)", "type": "cell-based", "experimental": "Cell dispersion of minced medullas to obtain semi-purified thin limb cells was performed as previously described.^33 These cells were used immediately for in vitro determination of basal and rGHRH(1-29)NH2-induced cAMP levels or purified by differential centrifugation for immunocytochemistry, using a continuous gradient of Nycodenz. The gradient was prepared as described by Grupp et al.^55 and thin limb cells were recovered in fraction I of the gradient after centrifugation at 1500 g (16° C., 45 min) and washed twice in HEPES-Ringer buffer (430 g, 16° C., 10 min). Cell viability, assessed by the Trypan Blue exclusion method, was around 95%. When purified thin limb cells were cultured, isolation and purification steps were performed under sterile conditions and media containing antibiotics.\nSensitivity to GHRH was assessed in freshly semi-purified thin limb cells^33 from rats fed a 8%-NaCl diet for 2, 7 or 14 days or the control diet. […] Supernatants were used to quantify immunoreactive cAMP levels (non-acetylated method). Pellets were kept frozen for determination of protein content.^59 Optical densities were measured at 450 nm, using a microplate reader (Bio-Rad, model 3550). […]"}, "[2]": {"test_system": "GHRH-R mRNA", "assay": "GHRH-R mRNA levels by real-time RT-PCR in purified thin limb cells after in vivo sc GHRH", "design": "species or system rat", "conditions": "2 days; for GHRH-R mRNA levels: 1 mg/kg BW/day sc", "experimental": "(§1) Two-month-old male Sprague Dawley rats (Charles River Canada, St-Constant, QC) were kept in temperature- (22° C.), humidity- (65%) and lighting- (12h cycles; lights on at 0700 h) controlled rooms and had free access to standard rat chow (2018 Tecklad global 18% protein rodent diet, containing 0.23% Na^+ and 0.4% Cl^−; Harlan Tecklad, Madison, Wis.) and tap water. Rats were acclimatized ≈3 days before going on a high-NaCl diet or water deprivation. Rats fed the custom-made high-NaCl diet for 2, 7 or 14 (8% NaCl; Harlan Tecklad) were compared to rats fed the custom-made control diet (0.3% NaCl; Harlan Tecklad). They had free access to water. Rats deprived of water for 3 or 5 days had free access to 2018 Tecklad rat chow. Rats used in the first series of experiments, to quantify GHRH-R mRNA levels following a 8%-NaCl diet or a water deprivation, were housed individually in metabolic cages for the entire duration of intervention. Body weight (BW), food and water intakes, and urine volume were recorded daily, and Na^+ levels were analyzed on the last 24h urine sample before sacrifice. Rats used in the 8%-NaCl diet/GHRH study were housed individually in plastic cages and BW and food intake were recorded daily. Rats were sacrificed in a block-design fashion between 0900-1130 h, by rapid decapitation. Pituitaries, kidneys and livers were excised immediately and anterior pituitaries and renal medullas dissected out. Tissues were snap-frozen in liquid nitrogen and stored at −80° C. until RNA extraction. […]\nTotal RNA from purified thin limb cells was extracted with TRIzol. […] Reverse transcription of 2 μg total RNA was performed using the SuperScript™ II RT kit (Invitrogen) and random hexamer primers, according to the manufacturer's protocol, including RNAse H treatement. mRNA levels of rat GHRH-R and rat GAPDH (internal control) were determined in separate tubes, by real-time PCR, using a 1/150 (GHRH-R) and 1/300 (GAPDH) dilution of the RT product and the reagents from the Quantitect™ SYBR® Green PCR kit (Qiagen, Mississauga, ON, CA), according to the manufacturer's recommendation. […]"}, "[3]": {"assay": "Serum total IGF-1 levels after in vivo GHRH", "design": "species or system rat", "conditions": "high-NaCl fed rats injected with GHRH, 1 mg/kg BW sc/day, 2 days", "experimental": "as §1, with “decapitation.” for “decapitation. Pituitaries, kidneys and livers were excised immediately and anterior pituitaries and renal medullas dissected out. Tissues were snap-frozen in liquid nitrogen and stored at −80° C. until RNA extraction.”"}, "[4]": {"conditions": "14-day sc administration, cited from earlier work"}, "[5]": {"test_system": "thin limbs of Henle's loop cells", "assay": "In vivo BrdU immunolabeling (DNA repair/synthesis) in purified thin limb cells", "design": "species or system rat", "conditions": "1 mg/kg BW sc/day, 2 days, 8%-NaCl chow", "experimental": "as §1, with “Rats deprived of water for 3 or 5 days had free access to 2018 Tecklad rat chow.” left out, “daily.” for “daily. Rats were sacrificed in a block-design fashion between 0900-1130 h, by rapid decapitation. Pituitaries, kidneys and livers were excised immediately and anterior pituitaries and renal medullas dissected out. Tissues were snap-frozen in liquid nitrogen and stored at −80° C. until RNA extraction.”\nBrdU immunolabeling (Roche Diagnostics, Laval, QC, CA) was used to quantify DNA repair/synthesis in purified thin limb cells from rat submitted 2 days to a 8%- or 0.3%-NaCl diet and injected with GHRH or saline. […]"}, "[6]": {"test_system": "anterior pituitary GHRH-R mRNA", "assay": "Anterior pituitary GHRH-R mRNA levels after in vivo GHRH", "design": "species or system rat", "conditions": "2-day in vivo GHRH", "experimental": "as §1, with “Rats deprived of water for 3 or 5 days had free access to 2018 Tecklad rat chow.” left out, “daily.” for “daily. Rats were sacrificed in a block-design fashion between 0900-1130 h, by rapid decapitation. Pituitaries, kidneys and livers were excised immediately and anterior pituitaries and renal medullas dissected out. Tissues were snap-frozen in liquid nitrogen and stored at −80° C. until RNA extraction.”\nTotal RNA was extracted as above. […] Membranes were subsequently washed, exposed to films, stripped and rehybridized with GAPDH 28S probes.^33 Quantification of each GHRH-R mRNA transcript (2.5 and 4 kb), GAPDH mRNA and 28S rRNA levels was performed by densitometry. […]"}, "[7]": {"test_system": "GHRH-R mRNA", "assay": "Renal medulla GHRH-R mRNA levels after in vivo GHRH in high-NaCl fed rats", "design": "species or system rat", "conditions": "high-NaCl fed rats injected with GHRH, 1 mg/kg BW sc/day, 2 days", "experimental": "as §1, with “Rats deprived of water for 3 or 5 days had free access to 2018 Tecklad rat chow.” left out, “daily.” for “daily. Rats were sacrificed in a block-design fashion between 0900-1130 h, by rapid decapitation. Pituitaries, kidneys and livers were excised immediately and anterior pituitaries and renal medullas dissected out. Tissues were snap-frozen in liquid nitrogen and stored at −80° C. until RNA extraction.”\nTotal RNA from medullas and purified descending and ascending thin limb cells was extracted with TRIzol (Invitrogen Canada, Burlington, ON). […] Tissue GHRH-R and GAPDH mRNA and cRNA external standard levels were quantified by densitometry. […]"}, "[8]": {"assay": "Body weight and food intake of rats on 8%-NaCl diet injected with GHRH", "type": "in vivo, rat", "conditions": "2-day 8%-NaCl diet, injected with GHRH or saline", "experimental": "as §1, with “decapitation.” for “decapitation. Pituitaries, kidneys and livers were excised immediately and anterior pituitaries and renal medullas dissected out. Tissues were snap-frozen in liquid nitrogen and stored at −80° C. until RNA extraction.”"}, "[9]": {"test_system": "CIC-K1 mRNA", "assay": "CIC-K1 mRNA levels by real-time RT-PCR in purified thin limb cells after in vivo sc GHRH", "design": "species or system rat", "conditions": "1 mg/kg BW/day sc, 2 days"}}, "note": "No end group written: not given here.", "data": [{"substance": "rGHRH(1-29)NH2 (HADAIFTSSYRRILGQLYARKLLHEIMNR-NH2) [rat growth hormone-releasing hormone fragment 1-29 amide, synthesized in the applicant's laboratory]", "values": [{"measurement": "decrease of GHRH-induced cAMP production", "setting": "[1]; 1 nM and 100 nM, cells from rats fed 2 days 8%-NaCl chow vs control diet", "result": 1.5, "unit": "fold"}, {"measurement": "loss of sensitivity to GHRH (cAMP production)", "setting": "[1]; cells from rats fed the high-salt diet for 7 or 14 days", "result": "reverted"}, {"measurement": "regulation of renal GHRH-R mRNA levels in thin limb cells", "setting": "[2]; 0.5 mg/kg BW/day sc, healthy rats, P<0.01", "result": "up-regulate"}, {"measurement": "GHRH-R mRNA levels", "setting": "[2]; 5 other rats", "result": "decreased"}, {"measurement": "GHRH-R mRNA levels", "setting": "[2]; subgroup of 3 rats", "result": "significantly increased"}, {"measurement": "serum total insulin-like growth factor-1 (IGF-1) levels", "setting": "[3]", "result": "not modified"}, {"measurement": "IGF-I serum levels significantly decreased", "setting": "[4]; 0.5 mg/kg BW/day", "result": "not"}, {"measurement": "IGF-I serum levels", "setting": "[4]; 1 mg/kg BW/day", "result": "significantly decreased"}, {"measurement": "increase in intensity of mitochondrial BrdU immunofluorescence", "setting": "[5]", "result": "≈ 7 times"}, {"measurement": "increase in the number of ascending thin limb cell nuclei and mitochondria immunolabeled to BrdU", "setting": "[5]; vs control groups", "result": 5, "unit": "times"}, {"measurement": "anterior pituitary GHRH-R mRNA levels", "setting": "[6]", "result": "No significant regulatory effect"}, {"measurement": "GHRH-R mRNA levels in the renal medulla", "setting": "[7]", "result": "tended to increase"}, {"measurement": "body weight (BW)", "setting": "[8]", "result": "No change"}, {"measurement": "food intake", "setting": "[8]", "result": "No change"}, {"measurement": "CIC-K1 mRNA levels", "setting": "[9]; 5 other rats", "result": "without significantly altering"}, {"measurement": "CICK-1 mRNA levels", "setting": "[9]; subgroup of 3 rats", "result": "significantly increased"}]}]}
